Experimental data: ChEMBL document CHEMBL1141697, “Promising core structure for nuclear receptor ligands: design and synthesis of novel estrogen receptor ligands based on diphenylamine skeleton” (Bioorg Med Chem Lett, 2008)
The source made the active and inactive calls. The calls are words filed in the database; no cut-off is given here.

Tests used:
MCF7 [1] = assay: Antiestrogenic activity in human MCF7 cells; format: functional, cell-based
MCF7 [2] = assay: Estrogenic activity in human MCF7 cells assessed as cell proliferation after 6 days by WST8 assay
[3] = target: T1, Estrogen receptor (Homo sapiens) (UniProt P03372); assay: Displacement of [2,4,6,7-3H]17beta-estradiol from human recombinant ERalpha receptor by liquid scintillation counter relative to 17-beta-estradiol
T1 sequence (whole entry): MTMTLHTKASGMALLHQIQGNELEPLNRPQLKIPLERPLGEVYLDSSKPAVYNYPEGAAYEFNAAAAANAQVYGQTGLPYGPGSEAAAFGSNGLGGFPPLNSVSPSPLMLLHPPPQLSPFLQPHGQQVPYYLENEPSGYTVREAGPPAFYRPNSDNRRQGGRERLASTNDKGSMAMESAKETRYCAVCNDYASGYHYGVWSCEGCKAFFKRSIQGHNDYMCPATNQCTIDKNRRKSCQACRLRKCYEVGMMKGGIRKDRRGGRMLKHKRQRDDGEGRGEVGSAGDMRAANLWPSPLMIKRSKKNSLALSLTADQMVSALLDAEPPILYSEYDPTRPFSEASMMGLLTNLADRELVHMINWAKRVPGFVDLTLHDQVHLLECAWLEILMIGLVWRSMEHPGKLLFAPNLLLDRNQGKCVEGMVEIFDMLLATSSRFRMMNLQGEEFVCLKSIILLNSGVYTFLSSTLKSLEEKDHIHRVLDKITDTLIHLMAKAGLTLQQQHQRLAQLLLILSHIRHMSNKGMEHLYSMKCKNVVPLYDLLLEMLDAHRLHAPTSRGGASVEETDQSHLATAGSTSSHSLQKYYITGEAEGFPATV

[4] = target: Estrogen receptor beta (Homo sapiens) (UniProt Q92731); assay: Displacement of [2,4,6,7-3H]17beta-estradiol from human recombinant ERbeta receptor by liquid scintillation counter relative to 17-beta-estradiol
MCF7 [5] = assay: Estrogenic activity in human MCF7 cells assessed as cell proliferation after 6 days by WST8 assay relative to 17-beta-estradiol; format: functional
MCF7 [6] = assay: cells; conditions: Homo sapiens, MCF7, 144 h
Homo sapiens = species on record: Homo sapiens; assay: Selectivity ratio of relative binding affinity for human recombinant ERalpha receptor to relative binding affinity for human recombinant ERbeta receptor

Estrogen receptor beta (Homo sapiens), sequence (Q92731 whole entry): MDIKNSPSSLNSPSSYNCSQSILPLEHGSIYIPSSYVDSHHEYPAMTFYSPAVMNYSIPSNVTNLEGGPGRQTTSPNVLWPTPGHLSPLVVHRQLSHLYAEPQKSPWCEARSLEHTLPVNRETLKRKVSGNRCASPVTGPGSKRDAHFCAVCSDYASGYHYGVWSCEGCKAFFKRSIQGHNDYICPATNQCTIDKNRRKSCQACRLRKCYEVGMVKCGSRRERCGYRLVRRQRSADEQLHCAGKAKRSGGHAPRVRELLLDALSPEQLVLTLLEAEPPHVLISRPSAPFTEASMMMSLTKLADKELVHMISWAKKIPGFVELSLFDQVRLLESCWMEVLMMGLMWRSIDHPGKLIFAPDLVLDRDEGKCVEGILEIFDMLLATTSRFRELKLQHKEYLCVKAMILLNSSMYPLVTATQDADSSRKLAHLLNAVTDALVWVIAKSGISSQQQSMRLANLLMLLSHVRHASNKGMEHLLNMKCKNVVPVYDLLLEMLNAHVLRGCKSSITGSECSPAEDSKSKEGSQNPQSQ

## CN(c1ccc(O)cc1)c1ccc(O)cc1
MCF7 [1]
  Activity: inactive
MCF7 [2]
  Activity: inactive
[3]
  relative binding affinity (RBA): < 0.001
[4]
  relative binding affinity (RBA): < 0.001

## Oc1ccc(N(CC23CC4CC(CC(Br)(C4)C2)C3)c2ccc(O)cc2)cc1
MCF7 [5]
  Activity: 77
MCF7 [6]
  EC50: 11000 nM
Homo sapiens
  Ratio: 1.02
MCF7 [1]
  Activity: inactive
[3]
  relative binding affinity (RBA): 0.551
[4]
  relative binding affinity (RBA): 0.565

## Oc1ccc(Nc2ccc(O)cc2)cc1
MCF7 [1]
  Activity: inactive
MCF7 [2]
  Activity: inactive
[3]
  relative binding affinity (RBA): < 0.001
[4]
  relative binding affinity (RBA): < 0.001

## CC(C)N(c1ccc(O)cc1)c1ccc(O)cc1
MCF7 [1]
  Activity: inactive
MCF7 [2]
  Activity: inactive
[3]
  relative binding affinity (RBA): < 0.001
[4]
  relative binding affinity (RBA): < 0.001

## O=S(=O)(c1ccc(O)cc1)N(c1ccc(O)cc1)c1ccc(O)cc1
MCF7 [5]
  Activity: 99
MCF7 [6]
  EC50: 12 nM
Homo sapiens
  Ratio: 0.011
MCF7 [1]
  Activity: inactive
[3]
  relative binding affinity (RBA): 0.352
[4]
  relative binding affinity (RBA): 0.004

## CS(=O)(=O)N(c1ccc(O)cc1)c1ccc(O)cc1
MCF7 [5]
  Activity: 213
MCF7 [6]
  EC50: 6900 nM
MCF7 [1]
  Activity: inactive
[3]
  relative binding affinity (RBA): < 0.001
[4]
  relative binding affinity (RBA): < 0.001

## CCCCCCN(c1ccc(O)cc1)c1ccc(O)cc1
MCF7 [5]
  Activity: 130
MCF7 [6]
  EC50: 11 nM
Homo sapiens
  Ratio: 0.667
MCF7 [1]
  Activity: inactive
[3]
  relative binding affinity (RBA): 0.153
[4]
  relative binding affinity (RBA): 0.102

## Oc1ccc(N(c2ccccc2)c2ccc(O)cc2)cc1
MCF7 [5]
  Activity: 87
MCF7 [6]
  EC50: 120 nM
Homo sapiens
  Ratio: 1.48
MCF7 [1]
  Activity: inactive
[3]
  relative binding affinity (RBA): 1.29
[4]
  relative binding affinity (RBA): 1.91

## Oc1ccc(N(CCC2CCCCC2)c2ccc(O)cc2)cc1
MCF7 [5]
  Activity: 71
MCF7 [6]
  EC50: 500 nM
Homo sapiens
  Ratio: 1.88
MCF7 [1]
  Activity: inactive
[3]
  relative binding affinity (RBA): 3.64
[4]
  relative binding affinity (RBA): 6.84

## Oc1ccc(N(CC2CCCCC2)c2ccc(O)cc2)cc1
MCF7 [5]
  Activity: 109
MCF7 [6]
  EC50: 210 nM
Homo sapiens
  Ratio: 7.52
MCF7 [1]
  Activity: inactive
[3]
  relative binding affinity (RBA): 0.89
[4]
  relative binding affinity (RBA): 6.7

## O=S(=O)(c1ccccc1)N(c1ccc(O)cc1)c1ccc(O)cc1
MCF7 [5]
  Activity: 98
MCF7 [6]
  EC50: 63 nM
MCF7 [1]
  Activity: inactive
[3]
  relative binding affinity (RBA): 0.04
[4]
  relative binding affinity (RBA): < 0.001

## O=C(c1ccc(O)cc1)N(c1ccc(O)cc1)c1ccc(O)cc1
MCF7 [5]
  Activity: 240
MCF7 [6]
  EC50: 5.2 nM
Homo sapiens
  Ratio: 0.188
MCF7 [1]
  Activity: inactive
[3]
  relative binding affinity (RBA): 0.336
[4]
  relative binding affinity (RBA): 0.063

## O=C(c1ccccc1)N(c1ccc(O)cc1)c1ccc(O)cc1
MCF7 [5]
  Activity: 114
MCF7 [6]
  EC50: 14 nM
Homo sapiens
  Ratio: 6.52
MCF7 [1]
  Activity: inactive
[3]
  relative binding affinity (RBA): 0.193
[4]
  relative binding affinity (RBA): 1.26

## Oc1ccc(N(c2ccc(O)cc2)C2CCCCC2)cc1
MCF7 [5]
  Activity: 64
MCF7 [6]
  EC50: 590 nM
Homo sapiens
  Ratio: 3.8
MCF7 [1]
  Activity: inactive
[3]
  relative binding affinity (RBA): 1.13
[4]
  relative binding affinity (RBA): 4.3

## CC(=O)N(c1ccc(O)cc1)c1ccc(O)cc1
MCF7 [5]
  Activity: 114
MCF7 [6]
  EC50: 43000 nM
MCF7 [1]
  Activity: inactive
[3]
  relative binding affinity (RBA): < 0.001
[4]
  relative binding affinity (RBA): < 0.001

## Oc1ccc(N(CC2CC2)c2ccc(O)cc2)cc1
MCF7 [1]
  Activity: inactive
[3]
  relative binding affinity (RBA): 0.054
[4]
  relative binding affinity (RBA): < 0.001

## Oc1ccc(N(Cc2ccccc2)c2ccc(O)cc2)cc1
MCF7 [5]
  Activity: 85
MCF7 [6]
  EC50: 67 nM
Homo sapiens
  Ratio: 27.7
MCF7 [1]
  Activity: inactive
[3]
  relative binding affinity (RBA): 0.655
[4]
  relative binding affinity (RBA): 18.1

## Oc1ccc(CN(c2ccc(O)cc2)c2ccc(O)cc2)cc1
MCF7 [5]
  Activity: 42
MCF7 [6]
  EC50: 370 nM
Homo sapiens
  Ratio: 0.951
MCF7 [1]
  Activity: inactive
[3]
  relative binding affinity (RBA): 4.26
[4]
  relative binding affinity (RBA): 4.05

## CC(C)CCN(c1ccc(O)cc1)c1ccc(O)cc1
MCF7 [5]
  Activity: 31
MCF7 [6]
  EC50: 570 nM
Homo sapiens
  Ratio: 18.1
MCF7 [1]
  Activity: inactive
[3]
  relative binding affinity (RBA): 0.129
[4]
  relative binding affinity (RBA): 2.34
